The values below come from article PMC3797749, “Functional Characterisation of the Maturation of the Blood-Brain Barrier in Larval Zebrafish” (PLoS ONE, 2013).

Data set [1] concerns zebrafish larvae. Briefly: in vivo. Conditions: for Absorption (whole body) (% uptake): 15 µg/ml (5 µg/ml scopolamine) immersion 1 hour, tissue vs medium concentration; for drug level (LC/MS/MS): 5 µg/ml 1 hour. The method, then:
(§1) Initial drug exposure assays were performed in larval zebrafish to identify a sufficiently high concentration of drug that could be detected by liquid chromatography/tandem mass spectrometry (LC/MS/MS) analysis without causing toxicity. Maximum tolerated concentration (MTC) was determined using n=6 larvae per group. […] Compounds of interest were prepared as 2 mg/ml stocks in dimethyl sulfoxide (DMSO). […] Larvae were incubated in the drug for 1 hour at room temperature then anaesthetised on ice. For whole uptake analysis, anaesthetised larvae were transferred to 1.5 ml microfuge tubes and all excess liquid was removed. 100 µl ice cold PBS was added, samples were briefly centrifuged and all excess liquid was removed. For brain versus body uptake analysis, larvae were anaesthetised by chilling prior to decapitation using fine iridectomy scissors and No. 5 watchmaker forceps. Head and body tissue samples were collected in separate microfuge tubes on ice and excess liquid removed. 100 µl ice cold PBS was added and samples were briefly centrifuged and all excess liquid removed. The weight of the tissue sample was measured and the samples were frozen at -20 °C prior to extraction for LC/MS/MS.
(§2) Test compound was added to the well containing 50 µg/ml verapamil and larvae were incubated for a further hour at room temperature prior to tissue collection as described. For subsequent LC/MS/MS analysis, tissue samples were thawed and after addition of an internal standard (clozapine) extracted into an organic solvent (tertiary-butyl methyl ether, t-bme). […] The analytes and internal standard were ionised under atmospheric pressure chemical ionisation (APCI) conditions operating in positive ion mode. Detection was via tandem mass spectrometry (MS/MS) using selected ion monitoring (SIM). All analyses were performed using a Finnigan LCQ quadrupole ion trap mass spectrometer.
(§3) A panel of 5 drugs known to either cross or not cross the BBB in mammals were selected to test in zebrafish larvae. Larvae of different ages were exposed to these compounds at non-toxic concentrations for 1 hour prior to collection of head and trunk tissue for analysis of drug concentration. A generic extraction method was developed and LC/MS/MS was performed to analyse the concentration of drug in head and trunk tissue in larvae of different ages. Drug/tissue concentrations were normalised against a standard and the relative amount of drug in head and trunk samples was compared to determine whether the drug distribution altered with larval age (Table 2).

The nature of the next data set: in vivo. Conditions: zebrafish, in vivo, immersion 1 hour. The method, then:
as §1, §2, §3

In data set [2] the test system is zebrafish larvae. Briefly: Dye exclusion experiments (pericardial injection, brain fluorescence quantification). In kind it is in vivo. The method, then:
Stocks of 2% Evans blue (961 Da) and 10% sodium fluorescein (376 Da) in 0.9% saline were prepared and stored at 4 °C. Larvae were anaesthetised by immersion in 0.2 mg/ml 3-amino benzoic acid (MS222) prior to being immobilised and positioned laterally in 3% methyl cellulose in embryo medium such that the heart was accessible. Larvae and juveniles from 2 days post-fertilisation (d.p.f.) to 30 d.p.f. were injected with 0.5 to 2 nl (depending on age) of dye or saline control into the pericardial region, using a standard zebrafish microinjection apparatus. Fish were transferred to fresh embryo medium to recover from anaesthesia, then viewed using a fluorescence dissecting microscope at 1 hour intervals to determine the time of uptake of the dye into the circulation and the time at which dye had permeated from the circulation into non-vascular body tissue. Representative images of dye distribution in vivo were taken on a Zeiss AxioZoom V16 microscope with Apotome. Dye and saline injected larvae were anaesthetised at 4 or 6 hours after injection and fixed in 4% paraformaldehyde in PBS. Ten larvae per age group and injection treatment were embedded in Sakura Tissue-Tek OCT (Bayer, Newbury, UK) and frozen parasagittal sections were cut at 10 µm thickness.
Sections were visualised without mounting medium by fluorescence microscopy on an Olympus BX51 microscope. Three midline sagittal sections from each larva were identified and images were captured using a ColorView camera (Olympus) and AnalySis software (Soft Imaging System). The fluorescence intensity within the brain was quantified for each midline section of each larva in each treatment group using colour threshold and area measurements in AnalySis. Mean values, standard deviations and Student’s t-tests were calculated using Excel software (Microsoft Office).
Rhodamine 123 (R123) was dissolved in 10% ethanol/0.9% saline to make a 0.5 mg/ml stock. […] Quantification of fluorescence in the brain was performed as described above.

The conditions of data set [3]: known from mammals, no reference given; cited from earlier work.
For another data set, the system named is Abcb1/4/5. Put plainly: Rhodamine 123 dye exclusion in the presence of verapamil. Type of data set: in vivo, zebrafish. Conditions: 8 d.p.f. and 10 d.p.f.; verapamil 50 µg/ml; 3 hours after injection. The method, then: Dye exclusion experiments on larvae at 3, 5, 8 and 10 d.p.f. were performed as described above using 0.2 nl R123. Some larvae were exposed to verapamil at 50 µg/ml for 2 hours prior to and during intrapericardial injection of R123 and for 3 hours after injection. At 3 hours after injection, larvae were anaesthetised and fixed in 4% PFA prior to processing for frozen sections. Quantification of fluorescence in the brain was performed as described above.

For data set [4] the following is noted: ref ChemIDplus; cited from earlier work.
The mark [5] stands for this setting: 15 µg/ml, Head concentration, 5 d.p.f.
The mark [6] stands for this setting: 15 µg/ml, Head concentration, 8 d.p.f.
Where [7] appears, read: 15 µg/ml, Trunk concentration, 5 d.p.f.
Setting [8] is: 15 µg/ml, Trunk concentration, 8 d.p.f.
The mark [9] stands for this setting: pericardial injection, brain fluorescence on frozen sections vs saline.

As to `Clc1ccc2c(c1)CCc1cccnc1C2=C1CCNCC1` [Desloratadine], the figures for the “Absorption (whole body) (% uptake)” value in the data set on zebrafish larvae [1] (5 d.p.f.) and in the data set on zebrafish larvae [1] (10 d.p.f.) were 14.8% and 28.5%, respectively.

Regarding `CN(C)CCOC(c1ccccc1)c1ccccc1` [Diphenhydramine], the concentration at 1 h worked out at 21600 ng/g in the data set “in vivo” (setting [5]); 31200 ng/g in “in vivo” (setting [6]); 21100 ng/g in “in vivo” (setting [7]); 24000 ng/g in “in vivo” (setting [8]); 52800 ng/g in the data set “in vivo” (Head concentration, 10 d.p.f.); 54800 ng/g in “in vivo” (Trunk concentration, 10 d.p.f.).

On to `Cc1cc(-c2ccc(/N=N/c3ccc4c(S(=O)(=O)O)cc(S(=O)(=O)O)c(N)c4c3O)c(C)c2)ccc1/N=N/c1ccc2c(S(=O)(=O)O)cc(S(=O)(=O)O)c(N)c2c1O` [Evans blue], for which the “larval age at which the injected dye is excluded from the brain” value (shortened to “larval age”) in the data set with zebrafish larvae [2] (zebrafish, in vivo, 3 h) amounted to 5 d.p.f.

Take `O=C(CCCN1CCC(O)(c2ccc(Cl)cc2)CC1)c1ccc(F)cc1` [Haloperidol]: the concentration at 1 h stood at 116000 ng/g in the data set “in vivo” (setting [5]); 136000 ng/g in the data set “in vivo” (setting [6]); 104000 ng/g in the data set “in vivo” (setting [7]); 149000 ng/g in the data set “in vivo” (setting [8]); 113000 ng/g in the data set “in vivo” (Head concentration, 10 d.p.f.); 101000 ng/g in “in vivo” (Trunk concentration, 10 d.p.f.). For the same compound, in the data set with zebrafish larvae [1] (1 hour exposure, lowest and highest value over drugs and ages), the “amount of drug absorbed, larval tissue as % of the medium concentration” value came to 949%. Moreover, the “Absorption (whole body) (% uptake)” value is given as 732.6% with zebrafish larvae [1] (5 d.p.f.), 949.5% with zebrafish larvae [1] (8 d.p.f.) and 713.5% in the data set with zebrafish larvae [1] (10 d.p.f.). Also, the “BBB penetration in mammals” value in data set [3] is recorded as “(penetrant)”.

As for `COC(=O)c1ccccc1-c1c2ccc(=N)cc-2oc2cc(N)ccc12` [Rhodamine 123], in the data set with zebrafish larvae [2] (setting [9]), the “larval age” value is on record as 8 d.p.f. Moreover, the “exclusion of R123 from the brain in the presence of verapamil” value in the data set on Abcb1/4/5 is reported as “failed to be excluded”.

As for `CN1[C@@H]2C[C@@H](OC(=O)[C@H](CO)c3ccccc3)C[C@H]1[C@@H]1O[C@@H]12` [Scopolamine], the “drug level (LC/MS/MS)” value with zebrafish larvae [1] (5 d.p.f.) and in the data set on zebrafish larvae [1] (8 d.p.f.) was “below the detection limits” each time. In addition, the Head concentration result with zebrafish larvae [1] (10 d.p.f., immersion 1 hour) was “.65 µg/g”. In the data set with zebrafish larvae [1] (10 d.p.f., immersion 1 hour), the Trunk concentration entry is “.63 µg/g”.

Consider `O=C([O-])c1ccccc1-c1c2ccc(=O)cc-2oc2cc([O-])ccc12.[Na+].[Na+]` [Sodium fluorescein, sodium fluorescein], for which the “larval age” value in the data set with zebrafish larvae [2] (setting [9]) is reported as 10 d.p.f.

Take Scopolamine N-butyl bromide: in data set [4], the LogP (usually a log measure of how a compound divides between an organic and an aqueous phase) is -1.11.
